Laboratory results as given in US6730665B1, “Treatment of bone cancer” (Mayo Foundation for Medical Education and Research, priority 1999, dated 2004).

How the values were obtained:
[1] = test system: MG63 cells; assay: Apoptotic gene mRNA levels by RNase protection assay; type: cell-based, human; settings: 10 μM
Experimental: The changes in expression of the genes that are known to antagonize or promote apoptosis were analyzed by this method. MG63 cells in triplicate cultures were treated with 10 μM 2ME. Cells were harvested at the end of 12, 24, 48 and 72 h of treatment and used for RNA isolation. Total RNA isolated from cells was analyzed by RNase protection assay using apoptosis template set for multiprobes (Pharmingen; San Diego, Calif.). Quantitation of protected RNA fragments was performed by Phosphor Imager analyses and normalized to L32 or GAP levels. The mRNA for the proapoptotic gene bak and bax were increased by 2ME treatment in MG63 cells (FIG. 7). The increase was significant within 12 h of treatment and reached a maximum (2 fold for bak; 2.5 fold for bax) at 48 h, at which time cell death by apoptosis was detected by in situ TUNEL assay.

[2] = test system: female Fisher 344 rats; assay: Cancellous bone histomorphometry of rat proximal tibial metaphysis after oral 2ME; type: in vivo; settings: 100 mg/kg/day oral gavage 13 days, mean ± SE
Experimental: All studies were approved by the Institutional Animal Care and Use Committee of the Mayo Clinic, Rochester, Minn. Rats were kept in plastic cages (3 per cage) under standard conditions of a 12 hr dark and 12 hr light cycle with food (Purina Laboratory rodent diet 5001, Ralston-Purina, St. Louis, Mo.) and water ad libitum. Rooms were maintained at a temperature of 24° C.
Fluorochromes were given […] tail vein.
Bone histomorphometry Histomorphometric measurements were performed with the OsteoMeasure Analysis System (OsteoMetrics, Atlanta, Ga.), which consisted of a Pentium 1133 computer coupled to a photomicroscope and image analysis system. […] The region of interest was traced, and the line lengths and area bounded by lines were calculated automatically.
Cancellous bone measurements on stained sections The proximal tibial metaphysis was dehydrated in a series of increasing concentrations of ethanol, embedded without demineralization in a mixture of methyimethacrylate-2-hydroxyethyl and methacrylate (12.5:1) to retain the fluorochrome labels, and sectioned at a thickness of 5 μm (Reichert-Jung Model 2065 Microtome, Heidelberg Germany). Sections were stained with toluidine blue. A standard sampling site was established in the secondary spongiosa of the metaphysis, 1 mm distal to the calcein label that was deposited at the metaphyseal growth plate, its center perpendicular to the long axis of each bone and extending 2.0 mm distal to the starting point. This method adjusts for longitudinal growth such that only the portion of the secondary spongiosa present throughout the experiment was sampled. A total metaphyseal area of 2.88 mm^2 was sampled for each section.
Bone volume measurements Cancellous bone area and cancellous perimeter were determined as described by Turner, R. T. et al., 1998, supra. The following indices of trabecular architecture were calculated: 1) trabecular thickness; 2) trabecular number; and 3) trabecular separation.
Bone formation measurements and calculations Bone formation rate (%/day, tissue area referent) was calculated as the double-labeled perimeter (μn) multiplied by the mineral apposition rate (μm/day) and divided by the tissue area (mm^2); bone formation rate (perimeter referent) was calculated as the double-labeled perimeter (μm) multiplied by the mineral apposition rate (μm/day) and divided by the total bone perimeter (mm); mineral apposition rate was calculated as the mean distance between the declomycin label and the calcein label by the time interval (11 days); and double-labeled perimeter (tissue are referent) was measured as the length with declomycin and calcein labels (mm/mm^2 of cancellous tissue area).
Statistical Analvses All values are expressed as mean±standard error (SE). Significant differences between groups were determined by Fisher's Protected Least Significant Difference post hoc test for multiple group comparisons following detection of significance by 1-way ANOVA. Significance was considered at p values ≦0.05.

[3] = test system: TE85 human osteosarcoma cells; assay: Cell survival, viable cell count with trypan blue; type: cell-based; settings: 2 μM, 72 h
Experimental: (§1) MG63 and TE85 human osteosarcoma cells, and ROS 17/2.8 rat osteosarcoma cells were grown in DMEM/F12 phenol-red free medium containing 10% charcoal-stripped fetal bovine serum (FBS) and supplemented with 100 units/ml penicillin, 100 μg/ml streptomycin. Cell were incubated at 37° C. under 5% CO2 in air. Cells were plated at 5×10^4 cells per well into 24 well plates containing 1 ml of medium per well. After allowing the cells to attach overnight, media in the wells were replaced with fresh 1 ml medium. Human fetal osteoblasts (hFOB) cells and hFOB cells overexpressing estrogen receptor-alpha (hFOB-ERα) and estrogen receptor-beta (hFOB-ERβ) were grown in DMEM/F12 medium containing FBS, penicillin, streptomycin and Geneticin (300 μg/mL). The laboratory of Dr. B. L. Riggs at Mayo Clinic provided primary human osteoblast (HOB) cells. HOB cells were basically established from cancellous bone obtained as waste from orthopedic procedures and cultured as explants to generate the osteoblast-like monolayers as described by Borke et al., J. Clin. Endocrinol. Metab., 1988, 67:1299-1304. Human FOB cells and hFOB cells stably transfected with estrogen receptors (ERs) were maintained at 34° C., while all other cells were incubated at 37° C. under 5% CO2 in air.
(§2) Estrogen metabolites were diluted 1000 fold to give the final required concentrations in each well, and maintained for 72 hrs. The metabolites 2ME, 2OHE, and E2 were purchased from Sigma Chemical Company (St. Louis, Mo.). Stock solutions for each metabolite were made in 95% ethanol. Cell growth was measured by taking the viable cell count. At the end of metabolite treatment, cells were harvested, stained with trypan blue, and counted under a light microscope.

[4] = test system: Human fetal osteoblasts (hFOB) cells; assay: Cell survival, viable cell count with trypan blue; type: cell-based; settings: 2 μM, 72 h
Experimental: as §1, §2

[5] = test system: ROS 17/2.8 rat osteosarcoma cells; assay: Cell survival, viable cell count with trypan blue; type: cell-based; settings: 2 μM, 72 h
Experimental: as §1, §2

[6] = test system: primary human osteoblast (HOB) cells; assay: Cell survival, viable cell count with trypan blue; type: cell-based
Experimental: as §1, §2

`COc1cc2c(cc1O)CC[C@@H]1[C@@H]2CC[C@]2(C)[C@@H](O)CC[C@@H]12` [2ME, 2-methoxyestradiol] was tested, and the “maximum increase of bak mRNA” value ([1]; 48 h) was 2 fold, the “maximum increase of bax mRNA” value ([1]; 48 h) was 2.5 fold and the “mRNA levels for bak and bax (in words)” value ([1]; 72 h) was “returned to basal level”. The BFR/BS [2] was 0.35 ± 0.03 %/day, the BV/TV [2] was 17.7 ± 1.9% and the “Mineral Apposition Rate” value [2] was 172 ± 0.05 μm/day. The Tb.Sp [2] was 297 ± 46 μm, the Tb.Th [2] was 57 ± 2 μm and the cell survival rate [3] was 9%. For the same compound, the “cell numbers reduced to” value [4] was 15%, the “cell numbers reduced to” value [5] was 19% and the “growth of normal osteoblasts (in words)” value [6] was “not affected”. For the same compound, the survival ([6]; 2 μM, 72 h) was 89%.
